pIC50: −log10 of the molar value. Read-outs that look alike come from different tables or passages of the source.
Experiments:
Caco-2 cells = assay: Counter-screen on Caco-2 cells, ATP level by luminescence (ATPlite), 48 h incubation; assay type: cell-based, human; details: atmospheric O2, 5% CO2, 48 h, 37 °C
Experimental: Trophozoites of G. intestinalis strain WB clone C6 (ATCC No. 50803TM) were cultured axenically at 37^∘C in 25-cm^2 flasks containing Diamond’s TYI-S-33 medium supplemented with 10% bovine calf serum, 1 mg/mL bovine bile, 0.1 g/L streptomycin and 100 U/mL penicillin. […] Human epithelial colorectal adenocarcinoma (Caco-2) cells were grown in 25-cm^2 flasks in EMEM supplemented with 1% (v/v) non-essential amino acids, 2 mM glutamine, 5% (v/v) fetal bovine serum, 0.1 g/L streptomycin, and 100 U/mL penicillin.
Cells were detached with 0.5% trypsin-EDTA and seeded in sterile 96-well white clear-bottom plates at the same density of Giardia trophozoites and at increasing concentration of the compound to be tested, as described above. The assays were carried out exactly as reported for the Giardia trophozoites, except that the plates were incubated (still at 37^∘C) at atmospheric O2 level, 5% CO2, and 95% humidity. Each drug concentration was tested in at least seven replicates. MTZ was used as an internal […] control in the assay. Following 48 h incubation with each compound, according to the manufacturer instructions, 100 μL of the ATPlite^TM luminescence assay system (Perkin Elmer) was added to each well for one-step lysis and ATP level detection by luminescence.
Luminometric data were calibrated using ATP standard curves and normalized to the ATP level measured in control DMSO-treated cells (taken as 100%). The measured ATP level percentage was plotted as a function of the compound concentration and the half-maximal inhibitory concentration (IC50) was obtained by fitting the resulting titration profile to the Hill equation ([Goutelle et al., 2008]). The selectivity index (SI) of the compounds was then calculated as the ratio between the IC50 value measured on human cells over the value determined on Giardia trophozoites (SI = IC50,Caco-2/IC50,Giardia).
Selectivity of the newly synthesized compounds toward Giardia was assessed by running a counter-screen on human epithelial Caco-2 cells. […] This allowed us to calculate the compounds SI, defined as the ratio between the IC50 value measured on human cells over the value determined on Giardia trophozoites.

[1] = system: Giardia intestinalis trophozoites; assay: Drug susceptibility of Giardia trophozoites, ATP level by luminescence (BacTiter-Glo), 48 h incubation, anaerobic or microaerobic; assay type: cell-based, Giardia intestinalis strain WB clone C6; details: for pIC50: 48 h, 37 °C, ATP level; for selectivity ratio at 48 h: human (Caco-2 cells) versus Giardia intestinalis, Caco-2, SI = IC50,Caco-2/IC50,Giardia; for fold more efficient than MTZ against Giardia: anaerobic conditions, relative to MTZ
Experimental: Trophozoites of G. intestinalis strain WB clone C6 (ATCC No. 50803TM) were cultured axenically at 37^∘C in 25-cm^2 flasks containing Diamond's TYI-S-33 medium supplemented with 10% bovine calf serum, 1 mg/mL bovine bile, 0.1 g/L streptomycin and 100 U/mL penicillin. Typically, 50 ml medium was inoculated with 25 × 10^6 cells and after 2 days cells were harvested by chilling the flasks on ice for 30 min for drug susceptibility assays. […] The assays were performed following the procedure described in [Bahadur et al. (2014)], using sterile 96-well white clear-bottom plates. […] Each drug concentration was tested in at least six replicates. MTZ was used as an internal positive control in the assay. The microtiter plates were then incubated at 37^∘C under anaerobic or microaerobic conditions, ensured by the Anaerocult® A or the Anaerocult® […] (Merck), respectively. […] Following 48 h incubation with the compound to be tested, 100 μL of the BacTiter-Glo^TM Microbial Cell Viability Assay System reagent (Promega) was added to each well for one-step lysis and ATP level detection. Plates were then incubated at room temperature for 15 min and ATP levels finally detected by luminescence on a plate reader (Wallac Victor3 1420 Multilabel Counter, PerkinElmer). Luminometric data were calibrated using ATP standard curves and normalized to the ATP level measured in control DMSO-treated cells (taken as 100%). The measured ATP level percentage was plotted as a function of the compound concentration and the half-maximal inhibitory concentration (IC50) was obtained by fitting the resulting titration profile to the Hill equation ([Goutelle et al., 2008]). The selectivity index (SI) of the compounds was then calculated as the ratio between the IC50 value measured on human cells over the value determined on Giardia trophozoites (SI = IC50,Caco-2/IC50,Giardia). The antigiardial activity of the novel compounds 23-67 was tested under both anaerobic and microaerobic conditions. According to ([Dunn et al., 2010]; [Bahadur et al., 2014]), susceptibility of Giardia trophozoites to increasing concentrations of each compound was assessed based on ATP level determination by luminescence. Dose-response curves for each compound were obtained after 48 h-incubation and compared to the data collected under identical conditions with MTZ, the drug of choice for treatment of giardiasis. […] Typical dose-response curves are shown in Figure 2, whereas the IC50 values measured for the synthetic compounds and MTZ under anaerobic and microaerobic conditions are reported in Table 1. […] Under anaerobic conditions, 18 out of the 45 synthetic compounds were as effective as MTZ or more under identical conditions (see Table 1).

[2] = Giardia duodenalis, anaerobic conditions (Anaerocult A), read-out: Giardia (anaerobiosis) IC50
[3] = Giardia duodenalis, microaerobic conditions (~5% O2, Anaerocult C), read-out: Giardia (microaerobiosis) IC50
[4] = Giardia under anaerobiosis, read-out: Selectivity (IC50,Caco/IC50,Giardia) Anaerobiosis
[5] = Giardia under microaerobiosis, read-out: Selectivity (IC50,Caco/IC50,Giardia) Microaerobiosis

SMILES | melting point [°C] | pIC50 (Caco-2 cells; Homo sapiens, Caco-2, 48 h) | pIC50 (Caco-2 cells) | pIC50 [1, 2] | pIC50 [1, 3] | pIC50 ([1]; anaerobic conditions (Anaerocult A), read-out: Giardia (anaerobiosis) IC50) | selectivity ratio at 48 h [1, 4] | selectivity ratio at 48 h [1, 5] | fold more efficient than MTZ against Giardia [1]
COc1ccccc1C(=O)/C=C/c1cc2ccccc2n(Cc2cn(-c3ccccc3)nn2)c1=O [Compound 65] | 210 to 212 | ≤ 4.40 | ≤ 4.30 | 5.49 to 5.66 | 6.40 | 5.80 |  |  | 
Cc1ccc(C(=O)/C=C/c2cc3ccccc3n(Cc3cn(-c4ccc(C)cc4)nn3)c2=O)cc1 [Compound 37] | 202 to 204 | ≤ 4.30 |  | 5.20 | 5.80 |  | ≥ 7 | ≥ 31 | 
COc1ccccc1C(=O)/C=C/c1cc2ccccc2n(Cc2cn(-c3ccc(Cl)cc3)nn2)c1=O [Compound 56] | 230 to 232 | 5.08 |  | 5.49 | 6.22 |  | 2.6 | 14 | 
O=C(/C=C/c1cc2ccccc2n(Cc2cn(-c3ccc(F)cc3)nn2)c1=O)c1ccc(F)cc1 [Compound 43] | 202 to 204 | 5.15 |  | 5.92 | 6.52 |  | 5.8 | 23.3 | three to fourfold
Cc1ccc(C(=O)/C=C/c2cc3ccccc3n(Cc3cn(-c4ccccc4)nn3)c2=O)cc1 [Compound 64] | 216 to 218 | 4.75 |  | 5.55 | 6.30 |  | 6.4 | 35.6 | 
Cc1ccc(-n2cc(Cn3c(=O)c(/C=C/C(=O)c4ccc(Br)cc4)cc4ccccc43)nn2)cc1 [Compound 36] | 216 to 218 | ≤ 4.30 |  | 4.97 | 5.64 |  | ≥ 4 | ≥ 21 | 
O=C(/C=C/c1cc2ccccc2n(Cc2cn(-c3ccc(F)cc3)nn2)c1=O)c1ccc(Br)cc1 [Compound 45] | 238 to 240 | 4.78 |  | 5.96 | 6.30 |  | 15.2 | 33.4 | three to fourfold
COc1cccc(C(=O)/C=C/c2cc3ccccc3n(Cc3cn(-c4ccc(F)cc4)nn3)c2=O)c1 [Compound 48] | 220 to 222 | ≤ 4.22 |  | 5.15 | 5.80 |  | ≥ 8 | ≥ 37 | 
COc1ccc(-n2cc(Cn3c(=O)c(/C=C/C(=O)c4ccccc4OC)cc4ccccc43)nn2)cc1 [Compound 29] | 210 to 212 | ≤ 4.40 |  | 5.66 | 6.40 |  | > 15 |  | 
O=C(/C=C/c1cc2ccccc2n(Cc2cn(-c3ccccc3)nn2)c1=O)c1ccc(Cl)cc1 [Compound 62] | 216 to 218 | 5.23 |  | 5.68 | 6.15 |  | 2.8 | 8.4 | 
Cc1ccc(-n2cc(Cn3c(=O)c(/C=C/C(=O)c4ccc(F)cc4)cc4ccccc43)nn2)cc1 [Compound 34] | 215 to 217 | 5.03 |  | 5.42 | 5.92 |  | 2.5 | 7.8 | 
COc1ccc(C(=O)/C=C/c2cc3ccccc3n(Cc3cn(-c4ccc(Cl)cc4)nn3)c2=O)cc1 [Compound 58] | 210 to 212 | 4.71 |  | ≤ 4.00 | ≤ 4.52 |  | ≤ 0.2 | ≤ 0.7 | 
O=C(/C=C/c1cc2ccccc2n(Cc2cn(-c3ccc(F)cc3)nn2)c1=O)c1ccc(Cl)cc1 [Compound 44] | 190 to 192 | 5.14 |  | 5.82 | 6.00 |  | 4.8 | 7.2 | 
COc1ccc(C(=O)/C=C/c2cc3ccccc3n(Cc3cn(-c4ccc(C)cc4)nn3)c2=O)cc1 [Compound 40] | 182 to 184 | ≤ 4.22 |  | ≤ 4.82 | 5.62 |  |  | ≥ 25 | 
O=C(/C=C/c1cc2ccccc2n(Cc2cn(-c3ccccc3)nn2)c1=O)c1ccc(F)cc1 [Compound 61] | 202 to 204 | 4.74 |  | 5.28 | 6.10 |  | 3.4 | 22.8 | 
Cc1ccc(-n2cc(Cn3c(=O)c(/C=C/C(=O)c4ccccc4F)cc4ccccc43)nn2)cc1 [Compound 32] | 197 to 199 | 4.75 |  | 5.49 | 6.22 |  | 5.5 | 29.3 | 
O=C(/C=C/c1cc2ccccc2n(Cc2cn(-c3ccccc3)nn2)c1=O)c1cccc(F)c1 [Compound 60] | 180 to 182 | ≤ 4.30 |  | 5.46 | 6.15 |  | ≥ 14 | ≥ 71 | 
